Assays:
GPR139 [1] = biological target: T1, GPR139 (Homo sapiens, UniProt Q6DWJ6); test: Fluo-4 calcium mobilization assay, agonist mode, concentration-response curves in CHO-GPR139 cells; assay type: cell-based
T1 construct: host or cells: CHO-k1
T1 sequence (Q6DWJ6 1-353): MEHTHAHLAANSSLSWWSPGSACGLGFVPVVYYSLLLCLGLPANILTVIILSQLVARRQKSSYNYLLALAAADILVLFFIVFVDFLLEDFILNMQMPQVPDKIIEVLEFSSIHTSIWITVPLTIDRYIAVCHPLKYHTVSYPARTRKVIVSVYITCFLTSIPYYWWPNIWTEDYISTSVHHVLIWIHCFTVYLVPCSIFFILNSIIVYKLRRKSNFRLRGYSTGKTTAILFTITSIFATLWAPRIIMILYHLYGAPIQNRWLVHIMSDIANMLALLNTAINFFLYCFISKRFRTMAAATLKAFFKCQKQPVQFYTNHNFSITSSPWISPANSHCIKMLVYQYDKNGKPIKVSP
Description: All compounds were tested on a CHO-k1 cell line stably expressing GPR139 (CHO-GPR139)[11] kindly provided by H. Lundbeck A/S, Denmark. GPR139-specific responses were assessed using a CHO-k1 cell line stably expressing the muscarinic acetylcholine receptor M1 (CHO-M1) (The Missouri S&T cDNA Resource Center, # CEM100TN00). The CHO-GPR139 cells were grown in Dulbecco’s modified Eagle’s medium (DMEM) F12-Kaighn’s (ThermoFisher Scientific # 21127) supplemented with 10% dialyzed fetal bovine serum (United States origin; ThermoFisher Scientific # 26400), 1% GlutaMAX-I (100X) (ThermoFisher Scientific # 35050061), and 100 units/mL penicillin and 100 µg/mL streptomycin (ThermoFisher Scientific # 15140122) and 1 mg/mL geneticin (ThermoFisher Scientific # 11811031). The CHO-M1 cells were grown in Ham’s F12 (ThermoFisher Scientific # 21765) supplemented with 10% fetal bovine serum (South American origin; ThermoFisher Scientific # 10270) + 100 units/mL penicillin and streptomycin and 0.25 mg/mL geneticin.
The Fluo-4 Ca^2+-assay was performed as described previously, with minor modifications. After 1 hour incubation with the Fluo-4 dye, the CHO-GPR139 cells were washed with 100 μL HEPES buffer (Hank’s Balanced Salt Solution (HBBS, ThermoFisher Scientific # 14175053) supplemented with 20 mM HEPES, 1 mM MgCl2, 1 mM CaCl2, pH = 7.4) and the compound library was then added in concentrations between 25–63 μM dissolved in HEPES buffer (supplemented with 2.5 mM probenecid and 1% DMSO) and pre-incubated for 10 min at 37 °C. 33 μL of 3.2 μM 1a were added automatically after baseline measurements. […] This set-up allowed us to identify both antagonists and agonists (Fig. 2).
Each compound, for which a concentration response curve was made, was tested at least three times in duplicate measurements. After the incubation with the Fluo-4 dye and a wash, 100 μL HEPES buffer (supplemented with 2.5 mM probenecid) was added to each well and incubated for 10 minutes at 37 °C before recording. 33 μL of compounds (4× concentrated) were added automatically after baseline measurements.
(§1) The Ca^2+ and ERK responses were normalized as indicated and the concentration response curves were fitted by Prism 6 software (GraphPad) using nonlinear regression in a sigmoidal model with variable slope, as has been previously described.

GPR139 [2] = biological target: T1, GPR139; test: Phospho-ERK1/2 HTRF assay in CHO-GPR139 cells; assay type: cell-based; details: ERK phosphorylation
Description: All compounds were tested on a CHO-k1 cell line stably expressing GPR139 (CHO-GPR139)[11] kindly provided by H. Lundbeck A/S, Denmark. GPR139-specific responses were assessed using a CHO-k1 cell line stably expressing the muscarinic acetylcholine receptor M1 (CHO-M1) (The Missouri S&T cDNA Resource Center, # CEM100TN00).
Phospho-ERK measurements were made using the Advanced Phospho-ERK1/2 (Thr202/Tyr204) HTRF kit by Cisbio (Codolet, France). Approximately 24 hours prior to the experiment, CHO-GPR139 cells were plated at 50,000 cells/well onto a 96-well plate and cultured as detailed above. Approximately 6 hours later, the media was aspirated, replaced with 50 μL serum-free media, and the cells were allowed to serum starve overnight. The day of the experiment, serial dilutions of the test compounds and controls were made in serum-free media at 2x final concentration. 50 μL of test compounds were added directly to the appropriate wells for 5 minute stimulation at 37 °C. At this point, the media and compounds were rapidly aspirated, lysis/blocking buffer was added, and cells were lysed on a shaker for 30 minutes at room temperature.
as §1

[3] = CHO-GPR139 cells, at least three independent concentration-response curves in duplicate, read-out: EC50
[4] = CHO-GPR139 cells, normalized to buffer (0%) and 8 μM 1a (100%)
[5] = CHO-GPR139 cells, read-out: pEC50 ± SEM (converted)
[6] = expressed relative to FBS positive control
[7] = Table S1, 11 primary screen hits
[8] = Table S1, 11 primary screen hits, read-out: EC50
[9] = Table S1, normalized to compound 1a
[10] = calcium mobilization assay, GPR139, values printed with a minus sign, read-out: pEC50 ± SEM (converted)
[11] = calcium mobilization assay, efficacy normalized to compound 1a

Row | pEC50 ± S.E.M. (GPR139 [1]; CHO-GPR139 cells) | EC50 (GPR139 [1]; [3]) [µM] | Emax ± S.E.M. (GPR139 [1]; [4]) [%] | Compound | other results
1 | 6.47 ± 0.19 | 0.34 | 80 ± 6 | CC1(c2cccc3ccccc23)NC(=O)N(CC(=O)c2cc3ccccc3o2)C1=O (centres unmarked) [AC233] | 
2 |  | 0.49 |  | CC(C)(C)c1cc(NC(=O)Nc2ccc(-c3cn4c(n3)sc3cc(OCCN5CCOCC5)ccc34)cc2)no1 [AC220] | Emax (GPR139 [1]; [4]): 103 ± 3%
3 |  |  |  | C[C@H](NC(=O)CNC(=O)c1cccc(Cl)c1)c1ccccc1 [7c, reference compound] | EC50 (GPR139 [2]; [5]): 0.0129 µM; Emax (GPR139 [2]; [6]): 89.1 ± 4.38%
4 | 6.71 ± 0.14 | 0.19 | 103 ± 1 | CC1(c2ccc3c(c2)OCO3)NC(=O)N(CC(=O)N2CCc3ccccc32)C1=O (centres unmarked) [AC197] | pEC50 ± SEM (GPR139 [2]; CHO-GPR139 cells): 7.03 ± 0.14; Emax ± SEM (GPR139 [2]; [6]): 78.70 ± 4.05
5 | 6.10 ± 0.14 | 0.79 | 100 ± 5 | COc1ccc(C(=O)CN2C(=O)NC(C)(c3ccc4c(c3)OCO4)C2=O)cc1OC (centres unmarked) [AC138] | 
6 |  |  |  | COc1cc(OC)cc(C(=O)NNC(=O)Nc2cccc3ccccc23)c1 [1a, reference compound] | EC50 (GPR139 [2]; [5]): 0.0282 µM; Emax (GPR139 [2]; [6]): 81.5 ± 4.12%; EC80 concentration (GPR139 [1]; used for second stimulation in the screen): 0.8 µM
7 | 6.38 ± 0.06 | 0.42 | 88 ± 3 | CC1(c2cccc3ccccc23)NC(=O)N(CC(=O)c2ccc(CCNS(C)(=O)=O)s2)C1=O (centres unmarked) [AC241] | 
8 | 6.20 ± 0.24 | 0.63 | 115 ± 8 | CCc1cccc2c(C(=O)CN3C(=O)NC(C)(c4ccc5c(c4)OCCO5)C3=O)c[nH]c12 (centres unmarked) [AC210] | 
9 |  |  |  | O=C(NCCc1cc(Cl)c2c(c1)OCCO2)NCc1cccnc1-n1ccnc1 [AC37] | pEC50 ± S.E.M. (GPR139 [1]; [7]): 5.55 ± 0.19; EC50 (GPR139 [1]; [8]): 2.8 µM; Emax ± S.E.M. (GPR139 [1]; [9]): 105 ± 8%
10 | 6.12 ± 0.13 | 0.75 | 95 ± 1 | CC1(c2ccc3c(c2)OCO3)NC(=O)N(CC(=O)N2CCCCC2)C1=O (centres unmarked) [AC192] | 
11 | 6.54 ± 0.08 | 0.29 | 102 ± 6 | CC(C)COCCCNC(=O)NC(C)c1ccc(Br)cc1 (centres unmarked) [AC82] | 
12 |  |  |  | CC(C)OCCCNC(=O)NC(C)c1ccc2c(c1)OCO2 (centres unmarked) [AC12] | pEC50 ± S.E.M. (GPR139 [1]; [7]): 5.43 ± 0.19; EC50 (GPR139 [1]; [8]): 3.74 µM; Emax ± S.E.M. (GPR139 [1]; [9]): 116 ± 8%
13 |  |  |  | N[C@@H](Cc1c[nH]c2ccccc12)C(=O)O [L-tryptophan, reference compound] | EC50 (GPR139 [2]; CHO-GPR139 cells, 5 minute stimulation, read-out: EC50): 770 µM; EC50 (GPR139 [2]; [5]): 759 µM; Emax (GPR139 [2]; [6]): 70.6 ± 8.59%
14 | 6.45 ± 0.11 | 0.35 | 86 ± 5 | CC1(c2cccc3ccccc23)NC(=O)N(CC(=O)NCCc2ccccc2)C1=O (centres unmarked) [AC243] | 
15 | 6.46 ± 0.16 | 0.35 | 99 ± 2 | CC1(c2ccc3c(c2)OCCO3)NC(=O)N(CC(=O)c2ccc[nH]2)C1=O (centres unmarked) [AC191] | 
16 |  |  |  | CC1(C2CC2)NC(=O)N(CC(=O)N2CCCSc3ccccc32)C1=O (centres unmarked) [AC11] | pEC50 ± S.E.M. (GPR139 [1]; [7]): 5.15 ± 0.12; EC50 (GPR139 [1]; [8]): 7.07 µM; Emax ± S.E.M. (GPR139 [1]; [9]): 33 ± 3%
17 | 6.01 ± 0.03 | 0.99 | 67 ± 6 | Cc1ccc(C(=O)CN2C(=O)NC(C)(c3ccc4c(c3)OCO4)C2=O)cc1 (centres unmarked) [AC136] | 
18 | 6.36 ± 0.14 | 0.44 | 100 ± 3 | CC1(c2ccc3c(c2)OCCO3)NC(=O)N(CC(=O)c2ccc3c(c2)OCO3)C1=O (centres unmarked) [AC205] | 
19 | 6.39 ± 0.12 | 0.41 | 89 ± 5 | CC1CC(C)CN(C(=O)CN2C(=O)NC(C)(c3cccc4ccccc34)C2=O)C1 (centres unmarked) [AC186] | 

Row | pEC50 ± S.E.M. (GPR139 [1]; CHO-GPR139 cells) | EC50 (GPR139 [1]; [3]) [µM] | Emax ± S.E.M. (GPR139 [1]; [4]) [%] | Compound | other results
20 |  |  |  | CC(=O)Oc1cccc2c1C(=O)c1c(OC(C)=O)cc(C(=O)O)cc1C2=O [AC201] | EC50 (GPR139 [1]; calcium mobilization assay, GPR139, read-out: EC50): 1.8 µM; EC50 (GPR139 [1]; [10]): 1.78 µM; Emax (GPR139 [1]; [11]): 96%
21 | 6.54 ± 0.17 | 0.29 | 107 ± 3 | CC1(c2ccc3c(c2)OCCO3)NC(=O)N(CC(=O)N2CCc3ccccc3C2)C1=O (centres unmarked) [AC209] | 
22 | 6.31 ± 0.27 | 0.49 | 89 ± 1 | C=C(C)CN(CC)C(=O)CN1C(=O)NC(C)(c2cccc3ccccc23)C1=O (centres unmarked) [AC230] | 
23 | 6.27 ± 0.08 | 0.54 | 92 ± 3 | COc1ccc(OC)c(C(=O)CN2C(=O)NC(C)(c3ccc4c(c3)OCO4)C2=O)c1 (centres unmarked) [AC137] | 
24 | 6.03 ± 0.10 | 0.94 | 97 ± 4 | CC(C)OCCCNC(=O)NC(C)c1cccc(Cl)c1 (centres unmarked) [AC76] | 
25 | 6.36 ± 0.16 | 0.43 | 95 ± 2 | C=CCN(CC=C)C(=O)CN1C(=O)NC(C)(c2cccc3ccccc23)C1=O (centres unmarked) [AC229] | 
26 | 6.34 ± 0.11 | 0.46 | 111 ± 5 | CC1(c2ccc3c(c2)OCCO3)NC(=O)N(CC(=O)c2c[nH]c3ccccc23)C1=O (centres unmarked) [AC200] | 
27 | 6.11 ± 0.12 | 0.78 | 93 ± 3 | O=C(NCCCc1nc2ccccc2[nH]1)NC1CCSc2ccc(F)cc21 (centres unmarked) [AC14] | 
28 |  |  |  | O=C(O)C1CC=CCC1c1nnc(CSc2ccc(Cl)cc2)o1 (centres unmarked) [AC004] | EC50 (GPR139 [1]; [10]): 0.219 µM; Emax (GPR139 [1]; [11]): 116%
29 |  |  |  | Cc1ccc(C2(C)NC(=O)N(Cc3cn4cc(Cl)ccc4n3)C2=O)cc1 (centres unmarked) [AC10] | pEC50 ± S.E.M. (GPR139 [1]; [7]): 5.55 ± 0.03; EC50 (GPR139 [1]; [8]): 2.83 µM; Emax ± S.E.M. (GPR139 [1]; [9]): 89 ± 5%
30 | 6.47 ± 0.09 | 0.34 | 102 ± 2 | CC1(c2ccc3c(c2)OCO3)NC(=O)N(CC(=O)N2CCCc3ccccc32)C1=O (centres unmarked) [AC202] | 
31 | 6.41 ± 0.12 | 0.39 | 112 ± 5 | C=CCN(CC=C)C(=O)CN1C(=O)NC(C)(c2ccc3c(c2)OCO3)C1=O (centres unmarked) [AC7] | 
32 | 6.42 ± 0.07 | 0.38 | 99 ± 3 | CC1(c2cccc3ccccc23)NC(=O)N(CC(=O)c2ccc3c(c2)OCO3)C1=O (centres unmarked) [AC234] | 
33 | 6.22 ± 0.17 | 0.6 | 102 ± 4 | CC(C)OCCCNC(=O)NC(C)c1ccccc1Cl (centres unmarked) [AC77] | 
34 |  |  |  | Cc1ccc(CNC(=O)NCC2CN(CC(C)C)CCO2)cc1 (centres unmarked) [AC13] | pEC50 ± S.E.M. (GPR139 [1]; [7]): 4.68 ± 0.13; EC50 (GPR139 [1]; [8]): 20.7 µM; Emax ± S.E.M. (GPR139 [1]; [9]): 90 ± 5%
35 | 6.55 ± 0.07 | 0.28 | 97 ± 5 | CC(NC(=O)NCC(=O)NCC1CC1)c1ccc(F)cc1Cl (centres unmarked) [AC178] | 
36 |  |  |  | CN(CC(=O)NC1CC1)C(=O)COc1ccc2oc3c(c2c1)CCCC3 [AC16] | pEC50 ± S.E.M. (GPR139 [1]; [7]): 4.92 ± 0.12; EC50 (GPR139 [1]; [8]): 11.9 µM; Emax ± S.E.M. (GPR139 [1]; [9]): 44 ± 4%
37 | 6.13 ± 0.22 | 0.74 | 102 ± 5 | CC1(c2cccc3ccccc23)NC(=O)N(CC(=O)N2CCCCCC2)C1=O (centres unmarked) [AC187] | 

From article PMC6405842, “Identification of a novel scaffold for a small molecule GPR139 receptor agonist” (Scientific Reports, 2019)
